Measured values published in US8415300B2, “Sustained release of microcrystalline peptide suspensions” (Medical Research Council Technology, priority 2001, dated 2013).
Where a name gives a salt, the structure may show the parent alone. Each block holds one compound with its values, some of them ahead of it. Starred links: 1 amine or outer side, 2 acyl side, 3 side chain; linkers in the order of their positions; H or OH if unused. Positions of bridges follow the written chain, without caps; N, C: chain ends. Non-standard residues stand in square brackets, D forms with d. Residues, ends and D or L forms follow the SMILES beside them. Groups on a side chain read outwards from the residue. No end group written: not given here. *: point of attachment. dTrp(2-Me) = Cc1[nH]c2ccccc2c1C[C@@H](N)C(=O)O; Trp(2-Me) = Cc1[nH]c2ccccc2c1C[C@H](N)C(=O)O; dPhe(4-Cl) = N[C@H](Cc1ccc(Cl)cc1)C(=O)O; d2Nal = N[C@H](Cc1ccc2ccccc2c1)C(=O)O; d(hCit) = NC(=O)NCCCC[C@@H](N)C(=O)O; Lys(iPr) = CC(C)NCCCC[C@H](N)C(=O)O; Ethylenediamine = C(CN[*:2])N[*:1]; Hyp = O=C(O)[C@@H]1C[C@@H](O)CN1; dCit = NC(=O)NCCC[C@@H](N)C(=O)O; d3Pal = N[C@H](Cc1cccnc1)C(=O)O; Phg = N[C@H](C(=O)O)c1ccccc1; CO = O=C([*:1])[*:2]; Bn = c1ccc(C*)cc1

What was measured:
[1] = Pharmacokinetic analysis: sustained release of the peptide after injection of the suspension; format: in vivo, rats
Protocol: FIG. 2 is a graph which illustrates the sustained release of the peptide Teverelix for several weeks in rats injected with the suspension of Teverelix trifluoroacetate according to the invention.
(§1) 200 μL of 5% mannitol were added to approximately 15 mg of the LHRH antagonist Teverelix trifluoroacetate. […] The suspension is made of microcrystals of about 10 μm length. Microcrystals may clump together to form urchin like structures. The suspension was injected in rats (1 mg) sub-cutaneously and provided the pharmacodynamic effect of testosterone suppression for more than 45 days (FIG. 1).

[2] = Physical form (gel or flowing milky microcrystalline suspension) of the peptide salt mixed with aqueous medium or counter-ion acid; format: physicochemical
Protocol: Such behavior is not elicited by other salts such as the acetate, which result in the expected, but unwanted, formation of gels with poor bioavailability in vivo.
as §1
200 μL of water were added to approximately 15 mg of the LHRH antagonist Teverelix trifluoroacetate.
200 μL of water were added to approximately 15 mg of the LHRH antagonist Teverelix acetate.
In another study, 100 μL of TFA of various concentrations were added to 7.5 mg of the LHRH antagonist Teverelix acetate, with the TFA/Teverelix molar ratio ranging from 1 to 3.
200 μL of 150 mM TFA were added to amounts of the LHRH antagonist Teverelix acetate ranging from 5 to 30 mg (concentration ranging from 25 to 150 mg/mL).
The suspension was freeze-dried overnight.
(§2) The suspension was freeze-dried overnight. […] These suspensions were stable for at least 3 days at room temperature.
The suspension is made of microcrystals of about […] length. Microcrystals may assemble together to form urchin like structures. The suspension was freeze-dried overnight. […]

[3] = Stability of reconstituted suspensions at room temperature; format: physicochemical; details: reconstituted with water and 0.2 M acetate buffer pH 4.0
Text: as §2

[4] = 100 μL of 150 mM trifluoroacetic acid solution added to 7.5 mg

sustained release of the peptide, duration ([1]; rats, 1 mg sub-cutaneously, suspension in 5% mannitol): several weeks
Compound: CC(=O)N[C@H](Cc1ccc2ccccc2c1)C(=O)N[C@H](Cc1ccc(Cl)cc1)C(=O)N[C@H](Cc1cccnc1)C(=O)N[C@@H](CO)C(=O)N[C@@H](Cc1ccc(O)cc1)C(=O)N[C@H](CCCCNC(N)=O)C(=O)N[C@@H](CC(C)C)C(=O)N[C@@H](CCCCNC(C)C)C(=O)N1CCC[C@H]1C(=O)N[C@H](C)C(N)=O [Teverelix trifluoroacetate, Ac-D-Nal-D-pClPhe-D-Pal-Ser-Tyr-D-Hci-Leu-Lys(iPr)-Pro-D-Ala-NH2] (Ac-[d2Nal][dPhe(4-Cl)][d3Pal]SY[d(hCit)]L[Lys(iPr)]P[dA]-NH2)

physical form after mixing ([2]; 100 μL of 200 mM trifluoroacetic acid solution added to 2.5 mg): milky free flowing suspension
Compound: CC(=O)N[C@H](Cc1ccc2ccccc2c1)C(=O)N[C@H](Cc1ccc(Cl)cc1)C(=O)N[C@H](Cc1cccnc1)C(=O)N[C@@H](CO)C(=O)N[C@@H](Cc1ccc(O)cc1)C(=O)N[C@H](CCCNC(N)=O)C(=O)N[C@@H](CC(C)C)C(=O)N[C@@H](CCCNC(=N)N)C(=O)N1CCC[C@H]1C(=O)N[C@H](C)C(N)=O [Cetrorelix acetate, reference compound] (Ac-[d2Nal][dPhe(4-Cl)][d3Pal]SY[dCit]LRP[dA]-NH2)

physical form after mixing ([2]; 100 μL of 5% mannitol-water solution added to approximately 5 mg): milky free flowing suspension
Compound: NCCCC[C@@H]1NC(=O)[C@@H](Cc2c[nH]c3ccccc23)NC(=O)[C@H](c2ccccc2)NC(=O)[C@@H]2C[C@@H](OC(=O)NCCN)CN2C(=O)[C@H](Cc2ccccc2)NC(=O)[C@H](Cc2ccc(OCc3ccccc3)cc2)NC1=O [SOM 230, ETD-carboxy-c[Hyp-Phg-D-Trp-Lys-Tyr(Bzl)-Phe], reference compound] (cyclo([Hyp]([CO-Ethylenediamine])[Phg][dW]KY(Bn)F))

physical form of highly concentrated aqueous suspension ([2]; as trifluoroacetate (TFA) or sulfate salt, general statement): microcrystalline milky suspension | release of the active principle, duration ([1]; highly concentrated aqueous suspension of TFA or sulfate salt injected parenterally, general statement (FIGS. 1 and 2)): several weeks
Compound: Ac-D-Nal-D-pClPhe-D-Pal-Ser-Tyr-D-Hci-Leu-Lys(iPr)-Pro-D-Ala-NH2 [Teverelix]

physical form after mixing ([2]; 100 μL of 150 mM benzenesulfonic acid added to 7.5 mg): free flowing suspension
Compound: Ac-D-Nal-D-pClPhe-D-Pal-Ser-Tyr-D-Hci-Leu-Lys(iPr)-Pro-D-Ala-NH2 [Teverelix hydrochloride]

physical form after mixing ([2]; 150 mM TFA (3 mols/mol): 200 μL to approximately 15 mg (Example 6) or 1 mL to approximately 75 mg (Example 7)): flowing milky suspension | physical form after freeze-drying and reconstitution ([2]; 150 mM TFA suspension freeze-dried overnight, 1 mL of water and 0.2 M acetate buffer pH 4.0 added): flowing milky suspension | physical form after freeze-drying and reconstitution ([2]; 150 mM TFA suspension freeze-dried overnight, 200 μL of water or 5% mannitol added): flowing milky suspension | physical form after addition of TFA to the gel ([2]; 20 μL of TFA (3 mols/mol) added to gel of approximately 15 mg in 200 μL water): fluid, flowing milky pearly suspension | physical form after mixing ([2]; 100 μL of 150 mM trifluoromethane sulfonic acid solution added to 7.5 mg): free flowing milky suspension | physical form after mixing ([2]; 100 μL of 250 mM H2SO4 added to 7.5 mg (5 mols/mol), after several hours): flowing milky suspension | TFA/Teverelix molar ratio at which a flowing milky suspension was obtained ([2]; 100 μL of TFA of various concentrations added to 7.5 mg, molar ratio ranging from 1 to 3, gels at other ratios): 1.6 | physical form after mixing ([2]; 200 μL of 75 mM TFA with approximately 15 mg (1.5 mol/mol)): transparent gel | physical form after mixing ([2]; 200 μL of 100 mM TFA added to approximately 15 mg (2 mols/mol)): flowing milky suspension | concentration at which a flowing milky suspension was obtained ([2]; 200 μL of 150 mM TFA added to 5 to 30 mg (25 to 150 mg/mL)): up to 100 mg/mL | physical form after freeze-drying and reconstitution ([2]; H2SO4 suspension freeze-dried overnight, 100 μl of water or 5% mannitol added): flowing milky suspension | physical form after mixing ([2]; approximately 15 mg in 200 μL of water, vortex one minute): transparent gel | microcrystal length ([2]; suspension from 100 μL of 250 mM H2SO4 and 7.5 mg): about 100 μm | stability of the reconstituted suspensions [3]: at least 3 days
Compound: Ac-D-Nal-D-pClPhe-D-Pal-Ser-Tyr-D-Hci-Leu-Lys(iPr)-Pro-D-Ala-NH2 [Teverelix acetate]

Further lines, the compound ahead of its results:

Compound: [dF]CY[dW]KVC[Trp(2-Me)]-NH2 (disulfide 2-7)
physical form after mixing [2, 4]: Free flowing suspensions

Compound: D-Nal-c[Cys-Tyr-D-Trp-Lys-Val-Cys]-Trp(2Me)-NH2
physical form after mixing [2, 4]: Free flowing suspensions

Compound: [dF]CY[dW]KVCW-NH2 (disulfide 2-7)
physical form after mixing [2, 4]: Free flowing suspensions

Compound: [dTrp(2-Me)]CF[dW]KTC[Trp(2-Me)]-NH2 (disulfide 2-7)
physical form after mixing [2, 4]: Free flowing suspensions
